Results taken from ChEMBL document CHEMBL1152576, “E-Combretastatin and E-resveratrol structural modifications: antimicrobial and cancer cell growth inhibitory beta-E-nitrostyrenes” (Bioorg Med Chem, 2009).
Values after ≈ are worked out from the molar mass of the structure shown. Active and inactive are the calls of the source. No cut-off for these calls is given here.

Assays:
[1] = system: SF-295; assay: Cytotoxicity against human SF295 cells after 48 hrs by sulforhodamine B assay; type: functional
[2] = system: NCI-H460; assay: Cytotoxicity against human NCI-H460 cells after 48 hrs by sulforhodamine B assay; type: functional
[3] = system: MCF7; assay: Cytotoxicity against human MCF7 cells after 48 hrs by sulforhodamine B assay; type: functional
[4] = system: Cryptococcus neoformans; assay: Antimicrobial activity against Cryptococcus neoformans ATCC 90112 assessed clear zone in inhibition per disk by CLSI disk diffusion susceptibility assay; type: functional
[5] = system: Stenotrophomonas maltophilia; assay: Antimicrobial activity against Stenotrophomonas maltophilia ATCC 13637 assessed clear zone in inhibition per disk by CLSI disk diffusion susceptibility assay; type: functional
[6] = system: P388; assay: Cytotoxicity against mouse P388 cells after 48 hrs by sulforhodamine B assay; type: functional; conditions: P388, 48 h, read-out: ED50 (the source's name)
[7] = system: DU-145; assay: Cytotoxicity against human DU145 cells after 48 hrs by sulforhodamine B assay; type: functional
[8] = system: Streptococcus pneumoniae; assay: Antimicrobial activity against Streptococcus pneumoniae ATCC 6303 assessed clear zone in inhibition per disk by CLSI disk diffusion susceptibility assay; type: functional
[9] = system: A498; assay: Cytotoxicity against human A498 cells after 48 hrs by sulforhodamine B assay; type: functional
[10] = system: Staphylococcus aureus; assay: Antimicrobial activity against Staphylococcus aureus ATCC 29213 assessed clear zone in inhibition per disk by CLSI disk diffusion susceptibility assay; type: functional
[11] = system: Enterococcus faecalis; assay: Antimicrobial activity against Enterococcus faecalis ATCC 29212 assessed clear zone in inhibition per disk by CLSI disk diffusion susceptibility assay; type: functional
[12] = system: Escherichia coli; assay: Antimicrobial activity against Escherichia coli ATCC 25922 assessed clear zone in inhibition per disk by CLSI disk diffusion susceptibility assay; type: functional
[13] = system: BXPC-3; assay: Cytotoxicity against human BxPC3 cells after 48 hrs by sulforhodamine B assay; type: functional
[14] = system: Enterobacter cloacae; assay: Antimicrobial activity against Enterobacter cloacae ATCC 13047 assessed clear zone in inhibition per disk by CLSI disk diffusion susceptibility assay; type: functional
[15] = Inhibition of tubulin polymerization
[16] = system: Neisseria gonorrhoeae; assay: Antimicrobial activity against Neisseria gonorrhoeae ATCC 49226 assessed clear zone of inhibition measured per disk by CLSI disk diffusion susceptibility assay; type: functional
[17] = system: SK-MEL-5; assay: Cytotoxicity against human SK-MEL-5 cells after 48 hrs by sulforhodamine B assay; type: functional
[18] = system: OVCAR-3; assay: Cytotoxicity against human OVCAR-3 cells after 48 hrs by sulforhodamine B assay; type: functional
[19] = system: KM-20L2; assay: Cytotoxicity against human KM20L2 cells after 48 hrs by sulforhodamine B assay; type: functional
[20] = system: Micrococcus luteus; assay: Antimicrobial activity against Micrococcus luteus Presque Isle 456 assessed clear zone in inhibition per disk by CLSI disk diffusion susceptibility assay; type: functional
[21] = system: Candida albicans; assay: Antimicrobial activity against Candida albicans ATCC 90028 assessed clear zone in inhibition per disk by CLSI disk diffusion susceptibility assay; type: functional
[22] = system: SF-268; assay: Cytotoxicity against human SF268 cells after 48 hrs by sulforhodamine B assay; type: functional

IC50 [15] [µM] | Structure (SMILES) | GI50 [1] | GI50 ([2]; NCI-H460, 48 h) [µg/mL] | MIC [4] [µg] | MIC [5] [µg] | EC50 [6] [µg/mL] | MIC [8] [µg] | GI50 [9] | MIC [10] [µg] | MIC [11] [µg] | MIC [12] [µg] | MIC [14] [µg] | MIC [16] [µg] | GI50 [17] | GI50 [18] | GI50 ([19]; KM-20L2, 48 h) [µg/mL] | MIC [20] [µg] | MIC [21] [µg] | GI50 [3] | GI50 [22] | also measured
> 40 | Oc1ccc(/C=C/c2cc(O)cc(O)c2)cc1 [RESVERATROL] | inactive | – | – | – | – | – | inactive | – | – | – | – | – | inactive | inactive | – | – | – | – | – | –
12 | COc1cc(/C=C/[N+](=O)[O-])cc(O[Si](C)(C)C(C)(C)C)c1OC | – | > 10 | 25 | >100 | 32.6 (≈ 96 µM) | 3.12 | inactive | 3.12 | 3.12 | >100 | >100 | 3.12 | inactive | – | > 10 | 1.56 | >100 | inactive | inactive | GI50 ([1]; SF-295, 48 h): > 10 µg/mL; GI50 ([7]; DU-145, 48 h): > 10 µg/mL; GI50 ([13]; BXPC-3, 48 h): > 10 µg/mL; GI50 ([18]; OVCAR-3, 48 h): > 10 µg/mL
11 | CC(=O)Nc1ccc(/C=C/[N+](=O)[O-])cc1 | – | 0.7 (≈ 3.39 µM) | <6.25 | >100 | 6.2 (≈ 30.1 µM) | <6.25 | – | <6.25 | >100 | >100 | >100 | <6.25 | – | – | 1.1 (≈ 5.33 µM) | >100 | 6.25 | inactive | inactive | GI50 ([1]; SF-295, 48 h): 1.4 µg/mL (≈ 6.79 µM); GI50 [7]: inactive; GI50 ([9]; A498, 48 h): 0.96 µg/mL (≈ 4.66 µM); GI50 [13]: inactive; GI50 ([17]; SK-MEL-5, 48 h): 0.34 µg/mL (≈ 1.65 µM); GI50 ([18]; OVCAR-3, 48 h): 0.65 µg/mL (≈ 3.15 µM)

More lines, now with the values behind:

Structure (SMILES) | IC50 [15] [µM] | GI50 [1] | GI50 ([2]; NCI-H460, 48 h) [µg/mL] | MIC [4] [µg] | MIC [5] [µg] | EC50 [6] [µg/mL] | MIC [8] [µg] | GI50 [9] | MIC [10] [µg] | MIC [11] [µg] | MIC [12] [µg] | MIC [14] [µg] | MIC [16] [µg] | GI50 [17] | GI50 [18] | GI50 ([19]; KM-20L2, 48 h) [µg/mL] | MIC [20] [µg] | MIC [21] [µg] | GI50 [3] | GI50 [22] | also measured
O=[N+]([O-])/C=C/c1ccc(OP(=O)(OCc2ccccc2)OCc2ccccc2)cc1 | 10 | inactive | > 10 | 25 | >100 | 7 (≈ 16.5 µM) | >100 | inactive | 3.12 | 6.25 | >100 | >100 | 0.78 | inactive | inactive | > 10 | 6.25 | >100 | – | – | GI50 ([3]; MCF7, 48 h): > 10 µg/mL; GI50 ([7]; DU-145, 48 h): > 10 µg/mL; GI50 ([13]; BXPC-3, 48 h): > 10 µg/mL; GI50 ([22]; SF-268, 48 h): > 10 µg/mL
Oc1ccc(/C=C\c2cc(O)cc(O)c2)cc1 [CIS-RESVERATROL] | – | inactive | – | – | – | – | – | inactive | – | – | – | – | – | inactive | inactive | 22 (≈ 96.4 µM) | – | – | – | – | GI50 ([22]; SF-268, 48 h): 5 µg/mL (≈ 21.9 µM)
COc1cc(/C=C/[N+](=O)[O-])c(OC)c(OC)c1OC | 5.4 | inactive | – | 0.78 | 25 | 1.3 (≈ 4.83 µM) | 6.25 | inactive | <0.78 | 3.12 | 12.5 | >100 | <0.78 | inactive | inactive | – | 1.56 | 0.78 | inactive | inactive | GI50 [2]: inactive; GI50 [7]: inactive; GI50 [13]: inactive; GI50 [19]: inactive
